Results published in patent US8357636B2, “Alkoxylated alkylamines/alkyl ether amines with peaked distribution” (Akzo Nobel N.V., priority 2004, dated 2013).

Experiment: Effect of EO adduct added to 62% K-glyphosate solution (clear or hazy)
Assay type: physicochemical
Settings: ~25% added into a 62% K-glyphosate solution
From the text: Therefore, even a slight reduction in concentration of the higher EO adduct could improve the cloud point of glyphosate formulation dramatically.

## OCCOCCO [diethylene glycol]
  Appearance of solution after addition: clear solution
